Experimental data reported in ChEMBL document CHEMBL1201862, “PubChem BioAssay data set” (2004).
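Tested at 5 concentrations; 48 h exposure; 96-well plates; endpoints linearly interpolated, else capped at highest concentration. At the GI50, growth is halved.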 Activity calls are given as the source filed them. Rule as the data show it: active = GI50 up to about 1.1 µM and inactive = higher.

Experiments:
Experiment in all cases: NCI-60 cell line screen, 48 h
RPMI-8226 = system: RPMI-8226
TK-10 = system: TK-10
SNB-75 = system: SNB-75
EKVX = system: EKVX
OVCAR-4 = system: OVCAR-4
M14 = system: M14
OVCAR-3 = system: OVCAR-3
HCT-15 = system: HCT-15
CAKI-1 = system: CAKI-1
SNB-19 = system: SNB-19
LOX IMVI = system: LOX IMVI
PC-3 = system: PC-3
NCI-H226 = system: NCI-H226
HOP-62 = system: HOP-62
OVCAR-5 = system: OVCAR-5
HOP-92 = system: HOP-92
ACHN = system: ACHN
OVCAR-8 = system: OVCAR-8
MDA-MB-231 = system: MDA-MB-231
NCI-H460 = system: NCI-H460
UO-31 = system: UO-31
SF-295 = system: SF-295
HCT-116 = system: HCT-116
UACC-62 = system: UACC-62
CCRF-CEM = system: CCRF-CEM
HT-29 = system: HT-29
NCI-H522 = system: NCI-H522
HCC 2998 = system: HCC 2998
NCI-H23 = system: NCI-H23
NCI/ADR-RES = system: NCI/ADR-RES
MCF7 = system: MCF7
SN12C = system: SN12C
DU-145 = system: DU-145
K562 = system: K562
MOLT-4 = system: MOLT-4
KM12 = system: KM12
BT-549 = system: BT-549
U-251 = system: U-251
MDA-N = system: MDA-N
HL-60 = system: HL-60
T47D = system: T47D
SK-OV-3 = system: SK-OV-3
Malme-3M = system: Malme-3M
IGROV-1 = system: IGROV-1
A498 = system: A498
Hs-578T = system: Hs-578T
MDA-MB-435 = system: MDA-MB-435
SW-620 = system: SW-620
SK-MEL-5 = system: SK-MEL-5
SK-MEL-2 = system: SK-MEL-2
A549 = system: A549
COLO 205 = system: COLO 205
786-0 = system: 786-0
SF-539 = system: SF-539
SF-268 = system: SF-268
SR = system: SR
RXF 393 = system: RXF 393
SK-MEL-28 = system: SK-MEL-28
UACC-257 = system: UACC-257

In the case of `CCC1(O)C(=O)OCc2c1cc1n(c2=O)Cc2cc3cc(N)ccc3nc2-1` (stereo not drawn), the GI50 (RPMI-8226) is reported as 34.1 nM (active), the GI50 (TK-10) is reported as 1900 nM (inactive) and the GI50 (SNB-75) is reported as < 10 nM (active). The GI50 (EKVX) was 855 nM (active), the GI50 (OVCAR-4) was 257 nM (active) and the GI50 (M14) was < 10 nM (active). The GI50 (OVCAR-3) was 46.6 nM (active), the GI50 (HCT-15) was 72.1 nM and the GI50 (CAKI-1) was < 10 nM (active). The GI50 (SNB-19) was < 10 nM (active), the GI50 (LOX IMVI) was < 10 nM (active) and the GI50 (PC-3) was 70.2 nM (active). The GI50 (NCI-H226) was < 33.8 nM (active), the GI50 (HOP-62) was < 10 nM (active) and the GI50 (OVCAR-5) was < 27.1 nM (active). For the same molecule, the GI50 (HOP-92) was 53.5 nM (active), the GI50 (ACHN) was < 10 nM (active) and the GI50 (OVCAR-8) was < 12.8 nM (active). For the same molecule, the GI50 (MDA-MB-231) was 516 nM (active), the GI50 (NCI-H460) was < 10 nM (active) and the GI50 (UO-31) was < 10 nM (active). For the same molecule, the GI50 (SF-295) was < 10 nM (active), the GI50 (HCT-116) was < 10 nM (active) and the GI50 (UACC-62) was < 10 nM (active). For the same molecule, the GI50 (CCRF-CEM) was < 10 nM (active), the GI50 (HT-29) was 31.1 nM (active) and the GI50 (NCI-H522) was < 10 nM (active). For the same molecule, the GI50 (HCC 2998) was 34.5 nM (active), the GI50 (NCI-H23) was < 10 nM (active) and the GI50 (NCI/ADR-RES) was < 10 nM (active). The GI50 (MCF7) was < 10 nM (active), the GI50 (SN12C) was < 10 nM (active) and the GI50 (DU-145) was < 10 nM (active). For the same molecule, the GI50 (K562) was < 12.7 nM (active), the GI50 (MOLT-4) was < 10 nM (active) and the GI50 (KM12) was 59.3 nM (active). The GI50 (BT-549) was < 10 nM (active), the GI50 (U-251) was < 10 nM (active) and the GI50 (MDA-N) was 23.2 nM (active). For the same molecule, the GI50 (HL-60) was < 10 nM (active), the GI50 (T47D) was < 10 nM (active) and the GI50 (SK-OV-3) was < 10 nM (active). For the same molecule, the GI50 (Malme-3M) was 29.9 nM (active), the GI50 (IGROV-1) was 109 nM (active) and the GI50 (A498) was 125 nM (active). The GI50 (Hs-578T) was 1420 nM (inactive), the GI50 (MDA-MB-435) was 24.1 nM (active) and the GI50 (SW-620) was 21.9 nM (active). The GI50 (SK-MEL-5) was < 13.6 nM (active), the GI50 (SK-MEL-2) was 96.4 nM (active) and the GI50 (A549) was 10.3 nM (active). For the same molecule, the GI50 (COLO 205) was 366 nM (active), the GI50 (786-0) was < 10 nM (active) and the GI50 (SF-539) was < 10 nM (active). For the same molecule, the GI50 (SF-268) was < 10 nM (active) and the GI50 (SR) was < 10 nM (active).
For `O=C(COC(=O)c1ccccc1)c1ccc(Br)cc1`, the GI50 (RPMI-8226) was 3390 nM (inactive), the GI50 (TK-10) was 2580 nM (inactive) and the GI50 (SNB-75) was 16400 nM (inactive). For the same molecule, the GI50 (EKVX) was 14700 nM (inactive), the GI50 (M14) was 14500 nM (inactive) and the GI50 (OVCAR-3) was 12900 nM (inactive). The GI50 (HCT-15) was 3350 nM, the GI50 (CAKI-1) was 1470 nM (inactive) and the GI50 (SNB-19) was 16900 nM (inactive). The GI50 (LOX IMVI) was 3060 nM (inactive), the GI50 (PC-3) was 16300 nM (inactive) and the GI50 (HOP-62) was 18500 nM (inactive). The GI50 (OVCAR-5) was 10700 nM (inactive), the GI50 (HOP-92) was 14600 nM (inactive) and the GI50 (ACHN) was 19900 nM (inactive). For the same molecule, the GI50 (OVCAR-8) was 12500 nM (inactive), the GI50 (MDA-MB-231) was 14300 nM (inactive) and the GI50 (NCI-H460) was 18500 nM (inactive). For the same molecule, the GI50 (UO-31) was 1890 nM (inactive), the GI50 (SF-295) was 15800 nM (inactive) and the GI50 (HCT-116) was 8950 nM (inactive). The GI50 (UACC-62) was 13000 nM (inactive), the GI50 (CCRF-CEM) was 4040 nM (inactive) and the GI50 (HT-29) was 15600 nM (inactive). The GI50 (NCI-H522) was 1630 nM (inactive), the GI50 (HCC 2998) was 13300 nM (inactive) and the GI50 (NCI-H23) was 18300 nM (inactive). The GI50 (NCI/ADR-RES) was 21000 nM (inactive), the GI50 (MCF7) was 5530 nM (inactive) and the GI50 (RXF 393) was 2750 nM (inactive). For the same molecule, the GI50 (SN12C) was 10400 nM (inactive), the GI50 (DU-145) was 19500 nM (inactive) and the GI50 (K562) was 4400 nM (inactive). The GI50 (MOLT-4) was 3290 nM (inactive), the GI50 (KM12) was 15700 nM (inactive) and the GI50 (BT-549) was 6140 nM (inactive). The GI50 (U-251) was 11000 nM (inactive), the GI50 (MDA-N) was 4710 nM (inactive) and the GI50 (HL-60) was 6640 nM (inactive). The GI50 (SK-MEL-28) was 16900 nM (inactive), the GI50 (T47D) was 9060 nM (inactive) and the GI50 (SK-OV-3) was 19100 nM (inactive). The GI50 (Malme-3M) was 12200 nM (inactive), the GI50 (IGROV-1) was 1000 nM (active) and the GI50 (A498) was 15800 nM (inactive). The GI50 (Hs-578T) was 14300 nM (inactive), the GI50 (MDA-MB-435) was 6780 nM (inactive) and the GI50 (SW-620) was 6000 nM (inactive). For the same molecule, the GI50 (SK-MEL-5) was 14500 nM (inactive), the GI50 (SK-MEL-2) was 12200 nM (inactive) and the GI50 (A549) was 17200 nM (inactive). The GI50 (COLO 205) was 13600 nM (inactive), the GI50 (786-0) was 2410 nM (inactive) and the GI50 (UACC-257) was 15500 nM (inactive). The GI50 (SF-539) was 15100 nM (inactive), the GI50 (SF-268) was 19600 nM (inactive) and the GI50 (SR) was 2150 nM (inactive).
